Assay [1] deals with T1, BA/F3-FLT3-ITD + D835Y cells (Homo sapiens, UniProt P36888, D835Y, cells depend on it, form not given).
T1 sequence (P36888 1-993 D835Y): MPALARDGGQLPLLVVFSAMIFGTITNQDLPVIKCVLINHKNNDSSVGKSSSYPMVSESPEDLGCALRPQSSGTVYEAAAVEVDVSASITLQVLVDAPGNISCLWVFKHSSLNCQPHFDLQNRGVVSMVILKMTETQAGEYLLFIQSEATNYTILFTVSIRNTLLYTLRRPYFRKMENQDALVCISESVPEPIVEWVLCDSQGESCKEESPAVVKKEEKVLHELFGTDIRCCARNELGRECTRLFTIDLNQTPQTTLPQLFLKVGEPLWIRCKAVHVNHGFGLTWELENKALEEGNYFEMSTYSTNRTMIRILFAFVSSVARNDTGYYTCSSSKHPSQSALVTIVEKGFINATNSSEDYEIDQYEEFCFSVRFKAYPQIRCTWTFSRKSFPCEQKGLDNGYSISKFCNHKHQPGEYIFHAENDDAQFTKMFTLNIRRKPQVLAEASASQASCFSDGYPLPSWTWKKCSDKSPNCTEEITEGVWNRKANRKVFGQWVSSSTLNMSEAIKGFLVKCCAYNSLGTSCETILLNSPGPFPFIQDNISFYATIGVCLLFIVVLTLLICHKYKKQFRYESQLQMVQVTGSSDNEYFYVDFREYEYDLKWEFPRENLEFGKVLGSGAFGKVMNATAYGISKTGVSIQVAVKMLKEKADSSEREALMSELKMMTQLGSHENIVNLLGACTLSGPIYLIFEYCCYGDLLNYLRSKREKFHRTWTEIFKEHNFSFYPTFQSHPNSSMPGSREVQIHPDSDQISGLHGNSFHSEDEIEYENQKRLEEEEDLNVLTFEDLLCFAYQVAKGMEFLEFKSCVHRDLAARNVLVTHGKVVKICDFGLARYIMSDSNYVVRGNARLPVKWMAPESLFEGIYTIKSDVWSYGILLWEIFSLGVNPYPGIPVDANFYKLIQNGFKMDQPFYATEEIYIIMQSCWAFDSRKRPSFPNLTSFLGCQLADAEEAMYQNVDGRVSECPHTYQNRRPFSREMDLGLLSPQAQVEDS
Briefly: BA/F3-FLT3-ITD + D835Y cell proliferation assay (CellTiter-Glo). Type of assay: cell-based, murine. Conditions: BaF3 cells, read-out: BaF3_FLT3_ITD/D835Y IC50. An excerpt:
The FLT3 inhibitors may also be assessed using leukemia cell lines that express endogenous FLT3-ITD or cells that are engineered to express wild-type or mutant FLT3. The cells expressing endogenous FLT3 are dependent upon FLT3 catalytic activity for growth. For the engineered cells, murine BA/F3 cells were transfected with full-length FLT3 (either wild-type, or containing the ITD, D835Y, or F691L mutations, as noted). The parental BA/F3 cells are dependent upon Interleukin-3 (IL-3) for survival, and introduction of the FLT3 constructs renders these cells dependent upon FLT3 kinase activity when cultured in the absence of IL-3. Engineered BA/F3 cell growth assays can be performed in either the absence or presence of IL-3, to assess the compound inhibition of FLT3 or to detect the presence of off-target activity, respectively. Inhibitors of FLT3 kinase activity reduce or eliminate the FLT3 oncogenic signaling, resulting in reduced cell proliferation. This inhibition is measured as a function of compound concentration to assess IC50 values.
Cells were seeded at 1×10^4 cells per well of a 96 well cell culture plate in 50 μl of cell culture medium. Compounds were dissolved in DMSO, typically at a concentration of 5 mM and were serially diluted 1:3 for a total of eight points and added to the cells to final concentrations of 10, 3.3, 1.1, 0.37, 0.12, 0.041, 0.014 and 0.0046 μM in 100 μl cell culture medium (final concentration 0.2% DMSO). […] The cells were incubated at 37° C., 5% CO2 for three days. CellTiter-Glo Buffer (Promega Cell Viability Assay catalog #G7573) and substrate were equilibrated to room temperature, and enzyme/substrate Recombinant Firefly Luciferase/Beetle Luciferin was reconstituted. […] The plates were read on a Tecan M1000 using Luminescence protocol modified to read 0.1 s per well. The luminescence reading assesses the ATP content, which correlates directly with cell number such that the reading as a function of compound concentration was used to determine the IC50 value.
A general note: In ATP-based viability assays light output follows the ATP content of the culture.

The target of another assay is T2, FLT3-D835Y (Homo sapiens, UniProt P36888, D835Y).
T2 construct: purchased Invitrogen PV3967
T2 sequence (P36888 27-993 D835Y): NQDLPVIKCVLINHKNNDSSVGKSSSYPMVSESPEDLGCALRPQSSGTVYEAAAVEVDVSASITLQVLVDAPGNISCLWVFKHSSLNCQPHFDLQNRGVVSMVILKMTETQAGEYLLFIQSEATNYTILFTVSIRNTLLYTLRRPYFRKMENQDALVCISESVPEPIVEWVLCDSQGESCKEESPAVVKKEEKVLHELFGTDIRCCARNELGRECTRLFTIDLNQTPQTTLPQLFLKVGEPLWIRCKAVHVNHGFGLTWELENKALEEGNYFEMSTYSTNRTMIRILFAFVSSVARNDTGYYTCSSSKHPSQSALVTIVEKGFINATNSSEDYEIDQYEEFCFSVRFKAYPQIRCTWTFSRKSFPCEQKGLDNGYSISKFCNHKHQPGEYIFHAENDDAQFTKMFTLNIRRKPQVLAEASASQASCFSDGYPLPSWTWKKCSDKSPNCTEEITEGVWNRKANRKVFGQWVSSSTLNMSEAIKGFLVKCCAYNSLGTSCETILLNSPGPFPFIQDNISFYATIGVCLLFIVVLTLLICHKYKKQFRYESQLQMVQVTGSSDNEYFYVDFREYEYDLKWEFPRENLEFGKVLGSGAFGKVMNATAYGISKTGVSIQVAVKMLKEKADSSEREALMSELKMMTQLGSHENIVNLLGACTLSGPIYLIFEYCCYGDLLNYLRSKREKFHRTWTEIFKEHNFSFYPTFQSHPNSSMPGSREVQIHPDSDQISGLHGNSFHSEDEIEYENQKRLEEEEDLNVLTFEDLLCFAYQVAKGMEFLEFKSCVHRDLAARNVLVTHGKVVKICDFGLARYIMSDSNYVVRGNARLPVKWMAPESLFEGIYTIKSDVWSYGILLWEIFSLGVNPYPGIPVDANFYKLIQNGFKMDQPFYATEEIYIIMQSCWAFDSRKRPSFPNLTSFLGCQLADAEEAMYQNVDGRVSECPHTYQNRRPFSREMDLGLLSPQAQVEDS
Briefly: FLT3-D835Y biochemical kinase assay (AlphaScreen). An outline of the steps:
(§1)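 Compounds were tested against recombinant enzyme using AlphaScreen detection of tyrosine-phosphorylated biotin-poly(Glu4-Tyr) (30 nM final). The ATP concentration differed by construct: 10 μM for D835Y, 100 μM for ITD.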
(In general: In Alpha technology, singlet oxygen from a donor bead excites a nearby acceptor bead.)

The target in another assay is c-Kit (Homo sapiens, UniProt P10721). In words: c-Kit biochemical assay (per US 2007/0032519). Summed up: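 Biochemical kinase inhibition run per US 2007/0032519; values reported as binned IC50 ranges (0.0001–1 μM, 1–10 μM, 10–200 μM).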
The target of a further assay is T3, FLT3-ITD (Homo sapiens, UniProt P36888).
T3 construct: FLT3-ITD; Invitrogen #PV6190
T3 sequence (P36888 1-993): T1 sequence (P36888 1-993 D835Y) with Y835D
In words: FLT3-ITD biochemical kinase assay (AlphaScreen). Summed up:
as §1

Numbering of substitutions follows the chain as printed.

Chain of c-Kit (P10721 26-976): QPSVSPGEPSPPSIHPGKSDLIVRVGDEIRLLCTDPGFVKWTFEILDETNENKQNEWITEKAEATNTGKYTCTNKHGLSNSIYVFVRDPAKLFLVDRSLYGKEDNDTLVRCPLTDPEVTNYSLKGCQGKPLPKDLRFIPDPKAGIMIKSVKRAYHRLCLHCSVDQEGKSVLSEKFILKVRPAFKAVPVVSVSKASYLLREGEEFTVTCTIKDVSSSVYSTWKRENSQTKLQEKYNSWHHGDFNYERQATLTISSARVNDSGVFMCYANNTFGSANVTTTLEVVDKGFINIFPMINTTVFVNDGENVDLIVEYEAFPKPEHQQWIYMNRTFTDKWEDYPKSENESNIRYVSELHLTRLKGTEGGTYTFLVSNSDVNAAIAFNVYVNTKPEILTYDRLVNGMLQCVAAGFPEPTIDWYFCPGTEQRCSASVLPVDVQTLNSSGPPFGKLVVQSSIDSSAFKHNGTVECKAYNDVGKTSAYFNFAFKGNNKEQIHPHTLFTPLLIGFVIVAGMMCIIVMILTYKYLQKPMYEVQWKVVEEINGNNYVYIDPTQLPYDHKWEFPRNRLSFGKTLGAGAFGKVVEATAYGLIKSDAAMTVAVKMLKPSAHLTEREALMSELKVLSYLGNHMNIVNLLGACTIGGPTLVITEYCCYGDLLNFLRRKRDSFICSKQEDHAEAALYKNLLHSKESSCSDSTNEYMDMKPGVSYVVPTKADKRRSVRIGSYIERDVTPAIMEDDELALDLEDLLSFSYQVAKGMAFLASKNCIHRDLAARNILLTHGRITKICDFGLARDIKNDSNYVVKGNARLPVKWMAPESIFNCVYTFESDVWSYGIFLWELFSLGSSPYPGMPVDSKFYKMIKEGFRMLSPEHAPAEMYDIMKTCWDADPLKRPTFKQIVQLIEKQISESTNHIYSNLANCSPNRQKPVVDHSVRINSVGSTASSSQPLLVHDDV

Consider `COc1cnc2[nH]cc(-c3ccc4ncsc4c3)c2c1` [Compound 3], for which, in assay [1], the GI50 turned out to be 237 nM.
In the case of `COc1cnc2[nH]cc(-c3ccc4[nH]ccc4c3)c2c1` [Compound 1, reference compound], the GI50 in assay [1] is 839 nM.
As to `COc1cnc2[nH]cc(-c3ccc4[nH]cnc4c3)c2c1` [Compound 2], the GI50 in assay [1] worked out at 225 nM.
As for `O=S(=O)(C1CC1)N1CC=C(c2cnc3[nH]cc(-c4ccc5[nH]cnc5c4)c3c2)CC1` [P-031, 3-(1H-benzimidazol-5-yl)-5-(1-cyclopropylsulfonyl-3,6-dihydro-2H-pyridin-4-yl)-1H-pyrrolo[2,3-b]pyridine], the IC50 (in general, the concentration that inhibits the measured activity by half) against FLT3-D835Y was in the range of 1 to 10 µM; on c-Kit, 1 to 10 µM; against FLT3-ITD, 0.0001 to 1 µM.
As to `COc1cnc2[nH]cc(-c3cnc4c(c3)ncn4C)c2c1` [P-055, 6-(5-methoxy-1H-pyrrolo[2,3-b]pyridin-3-yl)-3-methyl-imidazo[4,5-b]pyridine], the IC50 was 10 to 200 µM on FLT3-D835Y, 10 to 200 µM against c-Kit and 0.0001 to 1 µM against FLT3-ITD.
As to `Cn1cc(-c2ccc(-c3cnc4[nH]cc(-c5ccc6ncn(C(C)(C)C)c6c5)c4n3)cc2)cn1` [P-306, 7-(3-tert-butylbenzimidazol-5-yl)-2-[4-(1-methylpyrazol-4-yl)phenyl]-5H-pyrrolo[2,3-b]pyrazine], the IC50 is 0.0001 to 1 µM against FLT3-D835Y, 1 to 10 µM against c-Kit and 0.0001 to 1 µM against FLT3-ITD.
On to `CC(C)(C)n1cnc2ccc(-c3c[nH]c4ncc(-c5ccc(C(=O)O)nc5)nc34)cc21` [P-376, 5-[7-(3-tert-butylbenzimidazol-5-yl)-5H-pyrrolo[2,3-b]pyrazin-2-yl]pyridine-2-carboxylic acid], for which the IC50 on FLT3-D835Y, on c-Kit and at FLT3-ITD was 0.0001 to 1 µM throughout.
As to `CS(=O)(=O)Nc1cccc(-c2cnc3[nH]cc(-c4ccc5ncn(C6CCCC6)c5c4)c3n2)c1` [P-070, N-[3-[7-(3-cyclopentylbenzimidazol-5-yl)-5H-pyrrolo[2,3-b]pyrazin-2-yl]phenyl]methanesulfonamide], the IC50 lay within 0.0001 to 1 µM against FLT3-D835Y, 1 to 10 µM against c-Kit and 0.0001 to 1 µM on FLT3-ITD.
For `O=C(C1CC1)N1CC=C(c2cnc3[nH]cc(-c4ccc5ncn(CC(F)(F)F)c5c4)c3c2)C1` [P-133, cyclopropyl-[3-[3-[3-(2,2,2-trifluoroethyl)benzimidazol-5-yl]-1H-pyrrolo[2,3-b]pyridin-5-yl]-2,5-dihydropyrrol-1-yl]methanone], the IC50 was 0.0001 to 1 µM at FLT3-D835Y, 1 to 10 µM at c-Kit and 0.0001 to 1 µM against FLT3-ITD.
Regarding `Cn1cnc2ccc(-c3c[nH]c4ncc(-c5cccc(N6CCCS6(=O)=O)c5)cc34)cc21` [P-093, 2-[3-[3-(3-methylbenzimidazol-5-yl)-1H-pyrrolo[2,3-b]pyridin-5-yl]phenyl]-1,2-thiazolidine 1,1-dioxide], the IC50 against FLT3-D835Y lay within 0.0001 to 1 µM; against c-Kit it was 1 to 10 µM; at FLT3-ITD, 0.0001 to 1 µM.
In the case of `CC(C)S(=O)(=O)Nc1cccc(-c2cnc3[nH]cc(-c4ccc5ncn(C)c5c4)c3c2)c1` [P-096, N-[3-[3-(3-methylbenzimidazol-5-yl)-1H-pyrrolo[2,3-b]pyridin-5-yl]phenyl]propane-2-sulfonamide], the IC50 lay in the range of 0.0001 to 1 µM on FLT3-D835Y, 1 to 10 µM against c-Kit and 0.0001 to 1 µM against FLT3-ITD.

The record behind these values is patent US10160755B2 (Plexxikon Inc., priority 2015, dated 2018).
